Reference: US11766434B2, “Pyrimidinone derivatives as CDC7 inhibitors” (Cancer Research Technology Limited, priority 2016, dated 2023)

Biological target: Cdc7/ASK (Homo sapiens, UniProt O00311)
Experiment: Cdc7 biochemical assay Method 1: 384 well ELISA, MCM2 whole protein substrate, Phospho MCM2 (S53) antibody
Design: purchased
Conditions: ATP 2 μM, 90 minutes, read-out: Biochemical method 1 (pIC50) (converted)
Procedure: This protocol describes a method for assaying Cdc7/ASK for activity. The assay is a 384 well ELISA assay, utilising a whole protein substrate (MCM2) and an antibody against Phospho MCM2 (S53). This site is thought to be specific to Cdc7/ASK phosphorylation and the assay has been validated using knockout mutants.
• TBS: 25 mM Tris pH 7.2, 150 mM NaCl. (Dilute 10× stock by 1:10). • Wash Buffer: TBS+0.05% Tween 20. (Add 100 mL 1 M Tris pH 7.2, 120 mL 5 M NaCl and 2 mL 100% Tween 20 per 4 L). • Kinase Reaction Buffer: 50 mM Tris-HCl pH 8.5, 10 mM MgCl2, 1 mM DTT. (Dilute 10× stock by 1:10 and add 100 μL 1M DTT per 100 mL prior to assay). • Diethanolamine Buffer: 1 M diethanolamine pH 9.8, 0.5 mM MgCl2. • Stop Solution: 1 M NaOH. • MCM2 was expressed and purified in-house and used in the assay at a final assay concentration of 436 ng/well. • Cdc7/ASK is purchased from commercial suppliers and used in the assay at a final assay concentration of 37.97 ng/well or 20.63 nM. • ATP used as a final assay concentration of 2 μM. • Primary Antibody: Rabbit anti-Phospho MCM2 (S53 Antibody (BL3353)), is purchased from commercial suppliers at 0.2 mg/mL and used at a final assay concentration by diluting 1:800 in TBS. • Secondary Antibody: Anti-Rabbit/AP Antibody is supplied is purchased from commercial suppliers at 1 mg/mL and used at a final assay concentration by diluting 1:2000 in TBS. • Development Reagent: Dissolve one 20 mg PNPP tablet (Sigma, product N2765, 20 mg per tablet) per 20 mL diethanolamine Buffer (or one 5 mg PNPP tablet per 5 mL diethanolamine buffer). Cover in foil and leave shaking on a roller shaker at room temperature for up to an hour to dissolve. Methods • 1. Add 20 μL 1× working stock of Substrate (MCM2) in TBS to all wells of a clear, 384 well, Nickel-chelate microplate to give a final concentration of 250 ng/well. Incubate at room temperature for at least 1 hour. Plates can be pre-coated for 1 hour and stored at 4° C. for up to 8 days. • 2. Wash with TBS+0.05% Tween 20 (80 μL x 3). • 3. Add 2 μL 10× test compounds, including the positive control, in 40% DMSO/water to ‘test’ wells. Add 2 μL 40% DMSO/water to ‘control’ and ‘blank’ wells. The final DMSO concentration will be 4%. • 4. Add 13 μL CDCl7/ASK Kinase (1.5× stock) in Kinase Reaction Buffer to ‘test’ and ‘control’ wells to give a final concentration of […]. Add 13 μL Kinase Reaction Buffer to ‘blank’ wells. • 5. Add 5 μL ATP (4× stock) in Kinase Reaction Buffer to all wells to give a final concentration of 2 μM. • 6. Incubate at room temperature for 90 minutes. • 7. Wash with TBS+0.05% Tween 20 (80 μL x 3). • 8. Add 20 μL 1× working solution of Primary Antibody in TBS to all wells. Incubate at room temperature for 30 minutes. • 9. Wash with TBS+0.05% Tween 20 (80 μL x 3). • 10. Add 20 μL 1× working solution of Secondary Antibody in TBS to all wells. Incubate at room temperature for 30 minutes. • 11. Wash with TBS+0.05% Tween 20 (80 μL x 3). • 12. Add 20 μL 1× Development Reagent to all wells. • 13. Incubate at room temperature for 2 hours. Stop the reaction by adding 20 μL Stop Solution to all wells and record Absorbance on a Pherastar plate reader.
Percentage inhibition values were calculated from absorbance values, using the no compound (DMSO) and no enzyme control values as 0% and 100% inhibition, respectively. IC50 determination was performed with ExcelFit software (IDBS) using curve fit 205. Z′ factors were determined for each plate tested and were all above 0.5.

Cdc7/ASK, sequence (O00311 whole entry): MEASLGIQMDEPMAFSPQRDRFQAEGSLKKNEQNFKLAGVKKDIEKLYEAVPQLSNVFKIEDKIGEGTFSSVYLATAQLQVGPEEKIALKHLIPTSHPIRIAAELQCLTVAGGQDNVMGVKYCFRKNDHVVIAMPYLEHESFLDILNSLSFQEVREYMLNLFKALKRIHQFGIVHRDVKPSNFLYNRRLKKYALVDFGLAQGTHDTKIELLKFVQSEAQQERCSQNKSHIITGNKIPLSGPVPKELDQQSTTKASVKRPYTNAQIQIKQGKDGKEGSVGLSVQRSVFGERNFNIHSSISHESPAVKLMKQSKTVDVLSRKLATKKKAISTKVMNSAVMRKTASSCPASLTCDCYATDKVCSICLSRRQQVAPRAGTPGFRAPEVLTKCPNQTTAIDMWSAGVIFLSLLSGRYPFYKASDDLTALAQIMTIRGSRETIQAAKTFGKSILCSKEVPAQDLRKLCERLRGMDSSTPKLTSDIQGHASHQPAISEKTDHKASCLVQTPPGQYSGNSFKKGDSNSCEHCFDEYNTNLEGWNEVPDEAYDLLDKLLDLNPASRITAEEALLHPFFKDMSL
Cdc7/ASK, sequence (Q9UBU7 whole entry partner): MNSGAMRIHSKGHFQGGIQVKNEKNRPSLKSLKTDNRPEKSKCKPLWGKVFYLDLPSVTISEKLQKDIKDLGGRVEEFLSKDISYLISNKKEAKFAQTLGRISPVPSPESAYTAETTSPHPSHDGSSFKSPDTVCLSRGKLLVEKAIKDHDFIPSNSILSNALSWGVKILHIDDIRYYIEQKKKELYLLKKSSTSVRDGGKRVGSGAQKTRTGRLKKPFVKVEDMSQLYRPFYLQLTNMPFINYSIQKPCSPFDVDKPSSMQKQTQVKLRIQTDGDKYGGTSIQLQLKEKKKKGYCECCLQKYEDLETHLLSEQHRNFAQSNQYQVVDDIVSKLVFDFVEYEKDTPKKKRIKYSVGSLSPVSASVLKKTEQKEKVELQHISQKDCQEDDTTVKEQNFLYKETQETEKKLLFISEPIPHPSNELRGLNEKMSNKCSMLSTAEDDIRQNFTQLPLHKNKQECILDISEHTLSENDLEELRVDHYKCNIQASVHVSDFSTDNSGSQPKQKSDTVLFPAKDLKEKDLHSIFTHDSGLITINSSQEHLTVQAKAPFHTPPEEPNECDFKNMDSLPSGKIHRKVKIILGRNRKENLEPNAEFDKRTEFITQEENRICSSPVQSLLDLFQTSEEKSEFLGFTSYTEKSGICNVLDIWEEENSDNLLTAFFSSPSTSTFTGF

SMILES | IC50 [nM]
Cc1ncsc1-c1nc(C2CCN(C(=O)c3cscn3)CC2)c(Cl)c(=O)[nH]1 [Compound 21, 5-chloro-2-(4-methylthiazol-5-yl)-4-[1-(thiazole-4-carbonyl)-4-piperidyl]-1H-pyrimidin-6-one] | 3.98
Cc1ncsc1-c1nc(C2CCN(C(=O)c3ccnnc3)CC2)c(Cl)c(=O)[nH]1 [Compound 26, 5-chloro-2-(4-methylthiazol-5-yl)-4-[1-(pyridazine-4-carbonyl)-4-piperidyl]-1H-pyrimidin-6-one] | 1.66
O=c1[nH]c(-c2cncs2)nc(C2CCOCC2)c1Cl [Compound 9, 5-chloro-4-tetrahydropyran-4-yl-2-thiazol-5-yl-1H-pyrimidin-6-one] | 562
Cc1ncsc1-c1nc(C2CCOCC2)c(I)c(=O)[nH]1 [Compound 7, 5-Iodo-2-(4-methylthiazol-5-yl)-4-tetrahydropyran-4-yl-1H-pyrimidin-6-one] | 245
Cc1nnsc1-c1nc(C2CCOCC2)c(Cl)c(=O)[nH]1 [Compound 11, 5-chloro-2-(4-methylthiadiazol-5-yl)-4-tetrahydropyran-4-yl-1H-pyrimidin-6-one] | 692
Cn1nccc1-c1nc(C2CCOCC2)c(Cl)c(=O)[nH]1 [Compound 10, 5-chloro-2-(2-methylpyrazol-3-yl)-4-tetrahydropyran-4-yl-1H-pyrimidin-6-one] | 93.3
Cc1cc(C(=O)N2CCC(c3nc(-c4scnc4C)[nH]c(=O)c3Cl)CC2)[nH]n1 [Compound 22, 5-chloro-4-[1-(3-methyl-1H-pyrazole-5-carbonyl)-4-piperidyl]-2-(4-methylthiazol-5-yl)-1H-pyrimidin-6-one] | 4.37
Cc1ncsc1-c1nc(C2CCOCC2)c(Br)c(=O)[nH]1 [Compound 3, 5-bromo-2-(4-methylthiazol-5-yl)-4-tetrahydropyran-4-yl-1H-pyrimidin-6-one] | 57.5
Cc1ncsc1-c1nc(N2CCCNC(=O)C2)c(Cl)c(=O)[nH]1 [Compound 34, 4-[5-chloro-2-(4-methylthiazol-5-yl)-6-oxo-1H-pyrimidin-4-yl]-1,4-diazepan-2-one] | 158
Cc1ncsc1C(=O)N1CCC(c2nc(-c3scnc3C)[nH]c(=O)c2Cl)CC1 [Compound 20, 5-chloro-4-[1-(4-methylthiazole-5-carbonyl)-4-piperidyl]-2-(4-methylthiazol-5-yl)-1H-pyrimidin-6-one] | 4.47
Cc1cc(C(=O)N2CCC(c3nc(-c4scnc4C)[nH]c(=O)c3Cl)CC2)n(C)n1 [Compound 24, 5-chloro-4-[1-(2,5-dimethylpyrazole-3-carbonyl)-4-piperidyl]-2-(4-methylthiazol-5-yl)-1H-pyrimidin-6-one] | 3.98
Cc1ncsc1-c1nc(C2CCN(CC(C)C)CC2)c(Cl)c(=O)[nH]1 [Compound 27, 5-chloro-4-(1-isobutyl-4-piperidyl)-2-(4-methylthiazol-5-yl)-1H-pyrimidin-6-one] | 56.2
Cc1ncsc1-c1nc(C2CCN(C(=O)OC(C)(C)C)CC2)c(Cl)c(=O)[nH]1 [Compound 1, tert-butyl 4-[5-chloro-2-(4-methylthiazol-5-yl)-6-oxo-1H-pyrimidin-4-yl]piperidine-1-carboxylate] | 229
Cc1nc(O)sc1-c1nc(C2CCOCC2)c(Cl)c(=O)[nH]1 [Compound 5, 5-chloro-2-(2-hydroxy-4-methyl-thiazol-5-yl)-4-tetrahydropyran-4-yl-1H-pyrimidin-6-one] | 126
Cc1ncsc1-c1nc(C2CCOCC2)c(C#N)c(=O)[nH]1 [Compound 18, 2-(4-methylthiazol-5-yl)-6-oxo-4-tetrahydropyran-4-yl-1H-pyrimidine-5-carbonitrile] | 60.3
Cc1ncsc1-c1nc(C2CCN(C(=O)C3CC3(F)F)CC2)c(Cl)c(=O)[nH]1 (stereo not shown) [Compound 19, 5-chloro-4-[1-(2,2-difluorocyclopropanecarbonyl)-4-piperidyl]-2-(4-methylthiazol-5-yl)-1H-pyrimidin-6-one] | 40.7
